Laboratory results taken from a melting point compilation (Tetko et al.; mined from patent text by program, amines drawn as free bases though some values may be those of a salt).

Row | melting point [°C] | SMILES
1 | 66 | COC(=O)c1cccc(-c2ncc(OCCCN(C)C)cn2)c1
2 | 208 | CC(C)(C)OC(=O)NC(COCc1ccccc1)c1nc2c(C(F)(F)F)cccc2c(O)c1C(=O)Nc1nccs1 (configuration not stated)
3 | 148 to 149 | c1c(N2CCCC2)nc(N2CCCC2)nc1N1CCN(CCN2CCNCC2)CC1
4 | 182 to 183 | COc1ccc(Cn2cnc3c(-c4ccco4)nc([N+](=O)[O-])nc32)cc1
5 | 124 to 128 | CCNC(C)CCNC(CC(=O)O)C(=O)OC1CCCCC1 (configuration not stated)
6 | 126 | O=C(NC1(Cc2ccccc2)CCN(Cc2ccccc2)CC1)N1CCCC1
7 | 192 to 194 | O=CC(CC(=O)c1ccc(F)cc1)c1ccccc1 (configuration not stated)
8 | 76 to 78 | OCCCOc1ccc(-n2ccnc2)cc1
9 | 107 | O=[N+]([O-])c1cc(NCCO)ccc1NCCO
10 | 180 to 183 | CCOc1cccc(OCC)c1NC(=O)Cc1c(-c2ccccc2OC)c2cc(Cl)ccc2n1C
11 | 104 to 106 | O=S(=O)(NCCCO)c1c(Cl)cc(Cl)cc1Cl
12 | 178 to 180 | O=C(C1CCN(c2ccncc2)CC1)N1CCCN(S(=O)(=O)c2ccc3ccccc3c2)CC1
13 | 119 to 121 | CN1CCC(c2c[nH]c3ccc(NC(=O)C4CCCC4)nc23)CC1
14 | 146 to 147 | CCOc1ccccc1-c1nc2n(C3CCCC3)[nH]c(CC)c-2c(=O)n1
15 | 153 | COc1ccc(CCc2ccc(-c3ccc(OC(F)F)cc3)cc2)cc1
16 | 107 | COC(=O)c1ccc(F)cc1OC(=S)N(C)C
17 | 120 to 121 | CC(C)Cn1nccc1-c1nn(-c2cccc(C(F)(F)F)c2)ccc1=O
18 | 202 to 205 | CC(C)c1cccc(C(C)C)c1NC(=O)CS(=O)(=O)Nc1c(C(C)C)cccc1C(C)C
19 | 83 to 85 | Oc1ccc(Br)c2c1CCCC2
20 | 110 to 112 | Cc1ncc(CS)c2c1OC(c1ccccc1)OC2 (configuration not stated)
21 | > 300 | COc1cc2ncc(C#N)c(Nc3ccc4c(C)cc(=O)[nH]c4c3)c2cc1OC
22 | 101 to 102 | CC(C)N(CCC1(c2ccccn2)CCC(=O)NC1=O)C(C)C (configuration not stated)
23 | 49 to 50 | CCCCCC/C(=C\c1ccccc1)C1O[C@@H](C(=O)OC)[C@H](C(=O)OC)O1
24 | 181 to 184 | CCS(=O)(=O)CCC(=O)NNC(=O)N1Cc2ccccc2Oc2ccc(Cl)cc21
25 | 91.5 to 93.2 | COc1ccc(C(=O)O)c(OCCN2CCC(c3cn(Cc4ccoc4)c4ncccc34)CC2)c1

Row | melting point [°C] | SMILES
26 | 65 to 67 | Cc1nc(C)c(CC#N)cc1CC#N
27 | 85 to 86 | CCCNC(=O)C1(O)CC(O)C2OC(C)(C)OC2C1 (configuration not stated)
28 | 163 to 165 | COc1cccc(-c2nc(-c3ccccc3C=O)n[nH]2)c1
29 | 122 to 125 | CCCc1c(OCC(O)CS(=O)(=O)c2ccc(CC(=O)OC)c(Cl)c2Cl)ccc(C(C)=O)c1O (configuration not stated)
30 | 181 to 184 | Cc1[nH]c2ccc(O)cc2c1C(=O)NC1CCN(CCCc2ccccc2)CC1
31 | 98 to 101 | CCCCOC(=O)Cn1cccc1-c1nc(-c2ccc(OC)cc2)c(-c2ccc(OC)cc2)s1
32 | 262 | CCCC1=C(C#N)C(c2ccccc2Cl)c2c(n[nH]c2-c2ccccc2)N1 (configuration not stated)
33 | 107 to 108 | CN(C)CCCNCC(O)C(O)C(O)C(O)CO (configuration not stated)
34 | 114 to 118 | CC(C)OC(=O)c1c(S(C)(=O)=O)ccc(C(=O)O)c1Cl
35 | 82 | CCNc1ccccc1S(=O)(=O)C[N+](=O)[O-]
36 | 69 | COC(=O)c1ccc(S(C)(=O)=O)c(OS(=O)(=O)C(F)(F)F)c1Cl
37 | 140 | CC(C)(C)OC(=O)C=Cc1ccc(NC(=O)C=C2CC(C(=O)O)Nc3ccccc32)cc1 (racemic)
38 | 144 | CC1Oc2c(C#N)cc(F)cc2C=C1n1nc(C(F)(F)F)n(C)c1=S (configuration not stated)
39 | 110 | CN(C)C1=C(c2cccc(C(F)(F)F)c2)C(=O)OC1
40 | 186 to 187 | CC(O)(Cc1ccccc1)CN1CCC2(CC1)CSC1=C(O2)c2ccccc2C(=O)C1=O (configuration not stated)
41 | 150 to 152 | CNC(=O)N(C)c1nnc(C(C)(CCl)CCl)s1
42 | 212 to 213 | CNC(C(N)=O)c1cn(C2CCc3c(F)cc(F)cc3C2)c(=S)[nH]1 (configuration not stated)
43 | 188 to 189 | COc1ccc(C(=O)Nc2cc(C)cc(C)c2)cc1NC(=S)Nc1cccc(C)c1
44 | 125 to 126 | CC(C)(C)[Si](C)(C)Oc1cc(Cl)cc(C(O)(C#CC2CC2)C(F)(F)F)c1N (configuration not stated)
45 | 123 to 125 | CCC1CC(N)=NN1c1ccccc1 (configuration not stated)
46 | 180 to 182 | CC1c2cccn2-c2ccc(F)cc2N1S(=O)(=O)c1ccc(O)cc1 (configuration not stated)
47 | 234 to 236 | O=c1ccc(-c2ccc(Cl)c(Cl)c2)nn1CN1CCN(Cn2nc(-c3ccc(Cl)c(Cl)c3)ccc2=O)CC1
48 | 178 to 182 | O=C1c2ccccc2C(=O)N1CC(=O)N1c2ccccc2N(Cc2ccc(NCc3ccccc3)cc2)C(=O)[C@H]2CCC[C@H]21 (relative stereo)
49 | 85 to 86 | COc1ccc(-c2ccc(C(F)(F)CC(CC(O)CSc3ccccc3)C(=O)O)cc2)cc1 (configuration not stated)
50 | 142 to 143 | NC(=O)CCC/C=C\[C@@H]1C[C@@H](NS(=O)(=O)c2ccc(Cl)cc2)CN1S(=O)(=O)c1ccc(Cl)cc1

Row | melting point [°C] | SMILES
51 | 163 to 165 | Cn1ncc(NCCCN2CCC(c3noc4cc(F)ccc34)CC2)cc1=O
52 | 102 to 103 | O=C1c2ccccc2C(=O)N1CCCCN1CCC(=C(c2ccccc2)c2ccccc2)CC1
53 | 235 to 236 | O=C1C(=C2C=C(c3ccccc3)S(=O)(=O)C(c3ccccc3)=C2)C(=O)c2ccccc21
54 | 135 to 136 | Cc1cc(SC(C)C)c(NC(=O)CCCSc2nc3cccc(C(F)(F)F)c3o2)c(SC(C)C)n1
55 | 172 to 173 | CCCN(CC(C)n1c(CCOC)nc2c(N)nc3ccccc3c21)C(N)=S (configuration not stated)
56 | 190 | CCCCCCCNC(=O)Nc1ccc(N(C)C)cc1C(=O)NC(C)(C)C1CCN(C(c2ccccc2)c2ccccc2)CC1
57 | 138 to 139 | COc1ccc(NC2C3CCC(CC3=O)C2(C)c2ccccc2)cc1 (configuration not stated)
58 | 89 to 90 | Nc1ccc2ncnc(Nc3ccc(Oc4ccccc4)cc3)c2c1
59 | 210 to 215 | COc1ccc(-c2nc3nccnc3[nH]2)c(OC)c1
60 | 143 to 145 | CCCOc1ccc(S(=O)(=O)N2CCN(CC)CC2)cc1C(=O)O
61 | 140 to 142 | CCOC(=O)c1c(Nc2ccc(F)cc2[N+](=O)[O-])sc2c1CCCC2
62 | 123 | CC(=O)Nc1cc([N+](=O)[O-])ccc1OCC(C)O (configuration not stated)
63 | 167 to 170 | NC(=S)C=Cc1ccc(C(F)(F)F)cc1
64 | 64 to 65 | CCOC(=O)C(OCc1ccccc1)C(=O)c1cc(Cl)ccc1OCc1ccccc1 (configuration not stated)
65 | > 280 | CCCn1c(=O)c2[nH]c(/C=C/c3ccc(OC)c4ccccc34)nc2n(CCC)c1=O
66 | 114 to 121 | Cc1cc(O)c(O)c(O)c1
67 | 88 to 89 | CCCCCC(=O)n1c(=O)n(CCCC)c(=O)n1C(=O)CCCCC
68 | 134 to 136 | C#CCOc1nnc(Cl)c2ccccc12
69 | 98 to 100 | ClCCCCOc1ccccc1/C=C/c1nc2ccccc2s1
70 | 340 to 342 | O=c1[nH]ccc2c1c(O)nc1cc(Cl)ccc12
71 | 219 to 221 | O=C(O)c1cccc2c1CCc1ccc(O)cc1S2
72 | 73 to 76 | O=S(c1ccncc1)C1CCNCC1 (configuration not stated)
73 | 113 to 114 | CC(=O)NCN(C(=O)CCl)C(=C(C)C)C(C)C
74 | 71 to 72 | CC(C)(C)OC(=O)N1CCCCN1C(=O)OCc1ccccc1
75 | 123 to 124 | COC(=O)CC(C)C1CCC2C3CC=C4CC(OC(C)=O)CC(OC(C)=O)C4(C)C3CCC12C (configuration not stated)

Row | melting point [°C] | SMILES
76 | 298 to 300 | Nc1c(F)c(N2CCC(=NO)CC2)c(F)c2c1c(=O)c(C(=O)O)cn2C1CC1
77 | 116 to 119 | Clc1nnc(Cc2ccncc2)c2ccccc12
78 | 106 to 108 | CC(C)c1ccc2c(c1)C(N1CCN(CCCO)CC1)Cc1ccc(F)cc1S2 (configuration not stated)
79 | 213 | NC(=S)c1ccccc1-c1ccccc1
80 | 204 to 205 | Cc1cccc2nc(NC(=O)c3ccc(C(C)(C)C)cc3)cn12
81 | 148 | N#Cc1cccc(-c2cnco2)n1
82 | 101 to 102 | CC1=C(C)C(=O)C(NCc2ccccc2)=CC1=O
83 | 155 | CCOC(=O)CC1C(=O)N(CCc2c[nH]c3cc(C)ccc23)CCN1C(=O)c1ccccc1 (configuration not stated)
84 | 145 to 146 | CN(c1ccccc1)c1ncccc1NC(=O)c1ccccc1Cl
85 | 263 to 265 | Fc1ccc(-c2[nH]cc(C3CCN4CCCC4C3)c2-c2ccncc2)cc1 (configuration not stated)
86 | 70.8 to 72.4 | C=C(C)C(=O)NCCCCCCCCCCCC(=O)O
87 | 69 to 72 | COC(=O)CCCCCCCCN1C(=O)C(c2ccccc2)N(c2ccccc2)C1=O (configuration not stated)
88 | 214 to 232 | N#CC(C#N)=C1C=C(c2ccccc2)S(=O)(=O)C(c2cccs2)=C1
89 | 131 to 136 | CCC(=CC(CNC(=O)c1ccc(NS(C)(=O)=O)nc1)=NO)C(C)[N+](=O)[O-] (configuration not stated)
90 | 180 to 185 | COC(=O)CCc1ccc(OCc2cccc(-c3cccc(C(=O)O)c3)c2)cc1
91 | 238 to 240 | O=C1Nc2cccc(F)c2C(=O)N2CC=C[C@@H]12
92 | 100 to 101 | CCOP(=O)(OCC)C(OC)c1ccc(N)cc1 (configuration not stated)
93 | 247 to 248 | COc1ccc(CSc2nnc(-c3ccn4ncnc4c3)o2)cc1C#N
94 | 128 to 130 | COc1cc(OC)nc(C(=O)NS(=O)(=O)CC(C)C)n1
95 | 83 to 84 | COc1c(O)ccc2cc[nH]c12
96 | 118 to 122 | O=C1OC(c2ccccc2)N=C1CCCCNC(=O)c1ccccc1 (configuration not stated)
97 | 171 to 172 | CCOC(=O)C1Cc2ccc(NC)cc2NC1=O (configuration not stated)
98 | 102 to 103 | N#Cc1cccc(OCc2ccccc2)c1N
99 | 209 to 211 | COC(=O)c1cc(S(N)(=O)=O)c(F)cc1N
100 | 79 to 81 | COc1cccc(Sc2cccc(N)c2C#N)c1

Row | SMILES | melting point [°C]
101 | COc1cccc(C2=NN=C(C)Cc3cc(OC)c(OC)cc32)c1 | 133 to 135
102 | Cc1cc(C)nc(NC(=O)NS(=O)(=O)c2ccccc2C(=O)O)n1 | 160
